From the NIST ThermoML archive (doi:10.1016/j.fluid.2015.10.016)
Numbers after ± are expanded uncertainties.

How the values were obtained:
[1] = Molar enthalpy of transition or fusion; conditions: Crystal; DSC
[2] = Crystal; DTA

Row | Molar enthalpy of transition or fusion [1] [kcal/mol] | Normal melting temperature [2] [°C] | SMILES
1 | 2.31 ± 0.0956 | -27 ± 1 | OCCc1ccccc1 [2-phenylethanol]
2 | 4.97 ± 0.117 | 19.7 ± 0.4 | CCCC[N+]1(C)CCCC1.N#C[B-](C#N)(C#N)C#N [1-butyl-1-methylpyrrolidinium tetracyanoborate]
3 | 2.25 ± 0.0789 | -8.8 ± 0.4 | CCCC[N+]1(C)CCCC1.N#CC(=C=[N-])C#N [1-butyl-1-methylpyrrolidinium tricyanomethanide]
4 | 2.88 ± 0.0908 | -0.2 ± 0.4 | CCCC[N+]1(C)CCCC1.O=S(=O)([O-])C(F)(F)F [1-butyl-1-methylpyrrolidinium trifluoromethanesulfonate]
